In patent US12674204B2, “Method for generating retinal pigment epithelium (RPE) cells from induced pluripotent stem cells (iPSCs)” (THE UNITED STATES OF AMERICA, as represented by the …, priority 2013, dated 2026):

Legend:
Assay type in all cases: cell-based, human
iPSC-derived RPE cells = test: Sensitivity of iPSC-derived RPE cells to proteotoxic stressors in 384-well plates; conditions: conc. 10 μM, signals measured four days after the treatment, FIG. 29
Method: FIG. 29 is a bar graph showing the sensitivity of iPSC-derived RPE cells to various proteotoxic stressors. RPE cells differentiated from the reporter iPS cell line were grown in 384-well plates and treated with indicated stressors (conc. 10 μM). […] signals were measured four days after the treatment.

[1] = test system: iPSC derived retinal pigment epithelial cells; test: Aphidicolin treatment of iPSC-derived RPE: polarization, electrophysiology and phenotype
Description: (§1) Calomel electrodes in series with Ringer solutions and agar bridges were used to measure the transepithelial potential (TEP). The signals from intracellular microelectrodes were referenced to the basal bath to measure the apical and basal membrane potentials, VA and VB, where TEP=VB−VA. The total transepithelial resistance (Rt), and the ratio of the apical to basolateral membrane resistance (RA/RB) were obtained by passing 2-4 μA current pulses (peak to peak) across the tissue and measuring the resultant changes in TEP, VA and VB. See Maminishkis et al. supra and Quinn et al., supra for details.
Aphidicolin is a reversible inhibitor of eukaryotic nuclear DNA replication that blocks the cell cycle at early S phase. Its structure is that of a tetracyclic small molecule. […] It causes committed RPE cells to further mature and form fully-differentiated and highly polarized tissue monolayers (see FIGS. 30-31). Aphidicolin is dissolved in fourth medium and RPE cells are cultured in it for 6-8 weeks before analysis is done.

iPSC-derived RPE = test: Intracellular calcium measurements and electrophysiology of iPSC-derived RPE monolayers
Method: Intracellular Calcium Measurements and Electrophysiology: To assess calcium signaling in the RPE cells: ATP (200 μM; Sigma) and Cyclopiazonic Acid (CPA; 10 μM; EMD Millipore); (see Maminishkis et al., Invest. Ophthal. Vis. Sci. 47(8):3612-3624, 2006); Quinn et al., Invest. Ophthal. Vis. Sci. 33(13):3513-3527, 1992).
as §1

reporter iPSC line = test: GFP reporter signal / FACS analysis of RPE differentiation from reporter iPSC line; conditions: NAW versus NA, FIG. 17
Description: To optimize the protocol for iPSC to RPE differentiation, a reporter iPSC line was created. This reporter line constitutively expresses a red fluorescent protein, whose expression is controlled by ubiquitin gene promoter. The reporter iPSC line also expresses a green fluorescent protein (GFP), specifically when differentiated in to RPE lineage (FIG. 1-3). The RPE-specific enhancer of the gene Tyrosinase controls GFP expression in this iPSC line (FIG. 1). The first goal was to confirm that the GFP expression truly represents RPE lineage. To achieve this, iPSC line were differentiated using published differentiation protocols and characterized those differentiated cells using molecular and physiological assays. These assays are disclosed in FIGS. 22-24. FIG. 2 describes a simple schematic drawing of iPSC-RPE differentiation. When the reporter iPSC were differentiated into RPE, approximately 28 days into differentiation, GFP positive cells are present (FIG. 3A). […] GFP positive and negative cells were sorted by flow cytometry and the expression of several RPE-specific genes was analyzed, shown in FIG. 4.
Activin A induces RPE differentiation from ES cells. […] When quantified by FACS analysis, NA treatment produced only 22% GFP positive cells, whereas NAW treatment produced 52% GFP positive cells (FIG. 17, bottom panel).

iPSCs [2] = test: RPE differentiation from iPSCs scored by pigmented cells
Method: Transfer cells to Retinal Media (RM) plus Nicotinamide, Activin, and Wnt3a (NAW). Change media every other day (eg. Mon, Wed, and Fri) for 3 weeks.
Next, the effect of the concentration of knockout serum replacement (KSR) on RPE differentiation was tested.
Activin A induces RPE differentiation from ES cells. In animal models, canonical WNT (WNT3a) is important for RPE differentiation. It was hypothesized that a combination of activin A and WNT3a would be effective for the induction of RPE differentiation from iPSCs. A combination of these two factors was tested at the optic vesicle stage. Cells were moved from the RDM medium to medium containing either activin A (NA) only or activin A plus WNT3a (NAW). […] Because this differentiation process was started with the reporter iPSC lines, the increase in the number of RPE cell was confirmed by comparing the GFP signal between the two treatments. […] When quantified by FACS analysis, NA treatment produced only 22% GFP positive cells, whereas NAW treatment produced 52% GFP positive cells (FIG. 17, bottom panel).

iPSCs [3] = test: Quantitative gene expression of Pax6 and Mitf during eye-field/optic vesicle differentiation; conditions: 50 ng/ml Noggin with dual inhibition of WNT pathway and inhibition of FGF pathway
Method: After 48 hours of floating EB cultures they are plated onto MATRIGEL® coated plates in RDM medium. It was investigated whether the number of EBs plated/well affects differentiation of iPSCs into RPE. […] RDM medium was used for 3 weeks with change of medium on cells every Monday, Wednesday, and Friday Inhibition of Nodal, BMP, and WNT pathways can be important for differentiation of stem cells into eye-field cells. To inhibit the nodal pathway, the inhibitor SB431542 was used. To inhibit the activity of BMP pathway, various concentrations of Noggin, a BMP inhibitor, were tested. For WNT pathway inhibition, a combination of biological Wnt inhibitor DKK1 and a small molecule inhibitor of the WNT pathway CK1-7 were used.
Results have shown that inhibition of FGF signaling is important for RPE development. Therefore, the activity of FGF signaling pathway was modulated by either changing its concentration or/and by adding FGF inhibitor (PD 0325901) to the medium. The results were scored weekly by quantitative gene expression measurements of two transcription factors Pax6 and Mitf which are the master regulators of RPE differentiation (FIGS. 8-13). In addition, GFP expression was scored after six weeks as a direct measure of induction of RPE cells (FIG. 14).

[4] = aphidicolin treated RPE cells, FIG. 31

## CNc1ccc2oc(C[C@H]3O[C@@]4(CC[C@H]3C)O[C@H]([C@H](C)C(=O)c3ccc[nH]3)[C@H](C)C[C@H]4C)nc2c1C(=O)O [A23187]
iPSC-derived RPE cells
  effect on RPE phenotype (GFP signal): affected RPE phenotype

## C/C=C(/C)C(=O)O[C@H]1C(C)=C2[C@H]([C@@H]1OC(=O)CCCCCCC)[C@@](C)(OC(C)=O)C[C@H](OC(=O)CCC)[C@@]1(O)[C@H]2OC(=O)[C@@]1(C)O [Thapsigargin]
iPSC-derived RPE cells
  effect on RPE phenotype (GFP signal): affected RPE phenotype

## C[C@@]1(CO)[C@H](O)CC[C@@]2(C)[C@H]1CC[C@H]1C[C@@H]3C[C@@]12CC[C@]3(O)CO [Aphidicolin]
[1]; [4]
  membrane potential: higher
  physiological responses (hyperpolarization to low potassium or ATP on the apical side): better physiological responses
  transepithelial resistance: higher
[1]; compared to non-treated cells, FIG. 30
  apical process / polarization of RPE cells: more extensive apical process
[1]; cultured 6-8 weeks in fourth medium with aphidicolin
  RPE phenotype of iPS cell derived RPE on artificial membranes/scaffolds: improves their RPE phenotype

## O=CC[C@@H](O)[C@H](O)[C@H](O)CO [2-Deoxy-D-Glucose]
iPSC-derived RPE cells
  effect on RPE phenotype (GFP signal): affected RPE phenotype

## Nc1ncnc2c1ncn2[C@@H]1O[C@H](COP(=O)(O)OP(=O)(O)OP(=O)(O)O)[C@@H](O)[C@H]1O [ATP]
iPSC-derived RPE; apical application, FIG. 26C
  intracellular calcium response: typical bi-phasic response
iPSC-derived RPE; applied to the apical membrane, FIG. 26D
  basolateral membrane potential response: significantly depolarizes the basolateral membrane

B1: WNT3a: canonical WNT signaling regulator (protein, UniProt P56704 19-352, looked up)
Protein Wnt-3a: SYPIWWSLAVGPQYSSLGSQPILCASIPGLVPKQLRFCRNYVEIMPSVAEGIKIGIQECQHQFRGRRWNCTTVHDSLAIFGPVLDKATRESAFVHAIASAGVAFAVTRSCAEGTAAICGCSSRHQGSPGKGWKWGGCSEDIEFGGMVSREFADARENRPDARSAMNRHNNEAGRQAIASHMHLKCKCHGLSGSCEVKTCWWSQPDFRAIGDFLKDKYDSASEMVVEKHRESRGWVETLRPRYTYFKVPTERDLVYYEASPNFCEPNPETGSFGTRDRTCNVSSHGIDGCDLLCCGRGHNARAERRREKCRCVFHWCCYVSCQECTRVYDVHTCK
Reporter iPSC line
  number of GFP positive cells in differentiating iPSC cultures: significantly increases the number of GFP positive cells
iPSCs [2]; activin A plus WNT3a (NAW) versus activin A only (NA), FIG. 16
  number of pigmented cells per dish: significantly increased the number of pigmented cells per dish
iPSCs [2]; addition of WNT3a to Retinal Media with Nicotinamide and Activin
  RPE differentiation efficiency: significantly increased the RPE differentiation efficiency

B2: Noggin: a BMP inhibitor, protein encoded by the NOG gene (protein, UniProt Q13253 28-232, looked up)
Noggin: QHYLHIRPAPSDNLPLVDLIEHPDPIFDPKEKDLNETLLRSLLGGHYDPGFMATSPPEDRPGGGGGAAGGAEDLAELDQLLRQRPSGAMPSEIKGLEFSEGLAQGKKQRLSKKLRRKLQMWLWSQTFCPVLYAWNDLGSRFWPRYVKVGSCFSKRSCSVPEGMVCKPSKSVHLTVLRWRCQRRGGQRCGWIPIQYPIISECKCSC
iPSCs [3]
  expression of Pax6 and Mitf during the three weeks: significantly and progressively improve the expression of Pax6 and Mitf
